In patent US20100048498A1, “STABLE NON-DIHYDRATE AZITHROMYCIN ORAL SUSPENSIONS” (priority 2004, published 2010):

Key:
Format in all cases: physicochemical
[1] = Effects of flavoring components upon azithromycin form G conversion in constituted POS; conditions: room temperature, 24-hours
Procedure: Standards of these identified solvent components were then used to investigate the source of the stability problem introduced by these flavorings. The estimated concentration of each solvent in a constituted POS was calculated based on the GC-MS quantification of the specified solvent in the flavorings. Aqueous solutions of each solvent/component were then created at these concentrations and 18 mls of each solvent-solution was used to constitute an unflavored POS formulation I sample using form G. The constituted drug suspensions were stored at room temperature for 24-hours, before being filtered and analyzed by SS-NMR for quantification of azithromycin form change over this interval. POS formulations I and II were constituted with 18 mls of water and stored identically to serve as controls for this experiment.

[2] = Stability of azithromycin form G in suspensions prepared from POS formulations I, II and III; conditions: 18 mls water, 30° C.
Procedure: These POS formulations were created by individually weighing each formulation component into a 60-cc High Density Polyethylene (HDPE) bottle with closure. The resulting formulations were then dry-mixed with a Turbula blender (Glen Mills Inc. Maywood, NJ) for 5 minutes. The powder blends were then constituted with 18 mls of water, shaken for 30 seconds and stored without agitation under controlled temperature conditions.
Upon conclusion of the storage time period the POS samples were filtered using a Buchner funnel in combination with a standard vacuum filtration apparatus. A Millipore prefilter (AP25, 47 mm) was fitted onto the funnel for the collection of suspended solids. Before filtering, the constituted POS sample was poured into a 200 ml volumetric flask and diluted to 200 ml with water. This lowered the viscosity of the sample, facilitating a quick filtration step. With the vacuum on, the diluted POS samples were poured onto the Millipore prefilter. The isolated filtrate remaining on top of the prefilter was then allowed to stand for 2-minutes in order to dry. Vacuum was applied to the filtration apparatus during this drying step. Suspensions containing only bulk drug were transferred directly onto the filter paper upon completion of storage, without the described dilution step during sample preparation. After drying, the collected filtrate was placed into 4 cc Sunbroker vials and analyzed via Solid-State Nuclear Magnetic Resonance (SS-NMR) for quantification of conversion to azithromycin dihydrate (form A).
Approximately 300 mg of sample were tightly packed into a 7 mm ZrO spinner for each sample analyzed. One-dimensional ^13C spectra were collected at ambient pressure using ^1H-^13C cross-polarization magic angle spinning (CPMAS) at 295 K on a Bruker 7 mm BL CPMAS probe positioned into a wide-bore Bruker Avance DSX 500 MHz NMR spectrometer (Bruker BioSpin Corporation; Billerica, Mass.). The samples were spun at 7000 Hz corresponding to the maximum specified spinning speed for the 7 mm spinners. The fast spinning speed minimized the intensities of the spinning side bands. To optimize the signal sensitivity, the cross-polarization contact time was adjusted to 2.3 ms and the decoupling power was set to 65 kHz. Typically, a total of 600 scans were acquired, resulting in approximately a 30 minute acquisition time. The spectra were referenced using an external sample of adamantane with its most upfield resonance set to 29.5 ppm.
Eight pairs of resolved peaks were identified to calibrate ratios of form A in the presence of form G, N, M or F. Integral intensities of all peaks were used as input for the calibration procedure using five different binary mixtures ranging from 3 to 81% of form A with each non-dihydrate form. From this, one non-linear calibration graph was generated for each pair of peaks and each form. For the experimental samples, only the peaks that were totally void from excipient overlap were preferentially integrated. The unknown percentages of form A were then determined from the appropriate calibration graphs. The final result for each sample analyzed was calculated as a weighted average of the determinations from each resolved peak pair.
The stability of form G azithromycin was also evaluated for suspensions prepared from POS formulations I, II and III. The form G bulk drug substance contained <1% by weight of form A prior to formulation and constitution. These suspensions were constituted with 18 mls of water and stored for 1 and 10 days at 30° C.

[3] = Effect of cyclodextrins on non-dihydrate azithromycin form conversion in constituted POS formulation II; conditions: 24 hours room temperature
Procedure: The effect of adding a complexing agent such as cyclodextrin on the stability of non-dihydrate azithromycin forms G, M and F against conversion in a constituted POS formulation were evaluated.
Forms G, M and F of azithromycin were formulated into POS formulation II. Various cyclodextrins were added to the POS formulation II and the resulting samples were constituted with 18 mls of water. The suspensions were then stored for 24 hours at room temperature. At the end of the storage time, the suspensions were filtered and the recovered solids were weighed and analyzed by SS-NMR to quantify the presence of azithromycin dihydrate (form A). The control samples were formulated into formulation II with non-dihydrate azithromycin form G, M and F without cyclodextrins and were constituted with water, stored, filtered and analyzed identically to the cyclodextrin samples described above. A control, which had no cyclodextrin was run with each series of experiments. The SS-NMR data are presented in Tables 10, 11, 12 and the results are given as weight percent (% wt), of the recovered azithromycin sample.

% Form A ([1]; Formulation I constituted with 18 mL 0.002 mg/ml ethyl ester propanoic acid): 0% | % Form A ([1]; Formulation I constituted with 18 mL 0.025 mg/ml 3-methyl-1-butanol): 0% | % Form A ([1]; Formulation I constituted with 18 mL 0.043 mg/ml isoamyl isovalerate): 13% | % Form A ([1]; Formulation I constituted with 18 mL 0.144 mg/ml 2-methyl-butyl acetate): 0% | % Form A ([1]; Formulation I constituted with 18 mL 0.197 mg/ml ethyl acetate): 0% | % Form A ([1]; Formulation I constituted with 18 mL 0.587 mg/ml benzaldehyde): 0% | % Form A ([1]; Formulation I constituted with 18 mL 0.785 mg/ml 3-methyl-butyl acetate + 0.562 mg/ml benzaldehyde): 11% | % Form A ([1]; Formulation I constituted with 18 mL 0.815 mg/ml 3-methyl-butyl acetate): 2% | % Form A ([1]; Formulation I constituted with 18 mL Water, listed as form G, sesquihydrate): no conversion | % Form A ([1]; Formulation I constituted with 18 mL Water, sesquihydrate): 0% | % Form A ([1]; Formulation II constituted with 18 mL Water, listed as form G, sesquihydrate): approximately 71% | % Form A ([1]; Formulation II constituted with 18 mL Water, sesquihydrate): 71% | % Form A ([2]; Formulation I (no flavorings), Day 1): 0% | % Form A ([2]; Formulation I (no flavorings), Day 10, listed as form G, sesquihydrate): did not exhibit conversion | % Form A ([2]; Formulation I (no flavorings), Day 10, sesquihydrate): 0% | % Form A ([2]; Formulation II (Trusil banana), Day 1): 84% | % Form A ([2]; Formulation II (Trusil banana), Day 10): 91% | % Form A ([2]; Formulation III (B&C banana), Day 1): 27% | % Form A ([2]; Formulation III (B&C banana), Day 10): 52% | % Form A ([3]; POS Formulation II + Hydroxypropyl β-cyclodextrin 1.2 % w/w, Series 2, 18 mls water): 4.0% | % Form A ([3]; POS Formulation II + Hydroxypropyl β-cyclodextrin 11.1 % w/w, Series 3, 18 mls water): 4.9% | % Form A ([3]; POS Formulation II + Sulfobutylether β-cyclodextrin 1.2 % w/w, Series 2, 18 mls water): 14.4% | % Form A ([3]; POS Formulation II + Sulfobutylether β-cyclodextrin 11.1 % w/w, Series 3, 18 mls water): 7.0% | % Form A ([3]; POS Formulation II + α-cyclodextrin 1.2 % w/w, Series 1, 18 mls water): 4.8% | % Form A ([3]; POS Formulation II + β-cyclodextrin 1.2 % w/w, Series 2, 18 mls water): 8.3% | % Form A ([3]; POS Formulation II + γ-cyclodextrin 1.2 % w/w, Series 1, 18 mls water): 13.4% | % Form A ([3]; POS Formulation II, no cyclodextrin (Control), Series 1, 18 mls water): 68.3% | % Form A ([3]; POS Formulation II, no cyclodextrin (Control), Series 2, 18 mls water): 46.5% | % Form A ([3]; POS Formulation II, no cyclodextrin (Control), Series 3, 18 mls water): 67.9%
SMILES: CC[C@H]1OC(=O)[C@H](C)[C@@H](O[C@H]2C[C@@](C)(OC)[C@@H](O)[C@H](C)O2)[C@H](C)[C@@H](O[C@@H]2O[C@H](C)C[C@H](N(C)C)[C@H]2O)[C@](C)(O)C[C@@H](C)CN(C)[C@H](C)[C@@H](O)[C@]1(C)O [Form G, azithromycin sesquihydrate]
